Data published in paper PMC11923837, “Proline-Modified (RW)n Peptides: Enhancing the Antimicrobial Efficacy and Selectivity against Multidrug-Resistant Pathogens” (ACS Omega, 2025).
Read-outs that look alike come from different tables or passages of the source. No end group written: not given here.

Columns and labels:
[1] = tested on: human embryonic kidney (HEK293) cells; test: Cytotoxicity, resazurin reduction assay; type: cell-based
Protocol: (§1) Cytotoxicity was evaluated using human embryonic kidney (HEK293) and human red blood cells (RBCs). HEK293 cells were cultured in DMEM supplemented with 10% FBS. Cells were seeded in 384-well plates and incubated with peptides for 24 h. Cell viability was assessed using the resazurin reduction assay. Hemolysis assays were performed using fresh human RBCs incubated with peptides for 1 h at 37 °C.

[2] = tested on: human red blood cells (RBCs); test: Hemolysis assay; type: cell-based
Protocol: as §1

[3] = tested on: Staphylococcus aureus ATCC 43300 (MRSA); test: microbe, parasite or virus in culture; conditions: for MIC: Staphylococcus aureus, read-out: MIC against MRSA; for MIC, Sa (Table 1S): supplement Table 1S, unit not given (main-text tables: μg/mL), capital letter component 95 mg
Protocol: (§2) Antimicrobial activity was evaluated using the Community for Open Antimicrobial Drug Discovery (CO-ADD) screening platform. Minimum inhibitory concentrations (MICs) were determined against the following five bacterial strains: Escherichia coli (E. coli) ATCC 25922, Klebsiella pneumoniae ATCC 700603, Acinetobacter baumannii ATCC 19606, Pseudomonas aeruginosa ATCC 27853, and Staphylococcus aureus ATCC 43300.
(§3) Bacteria were cultured in cation-adjusted Mueller–Hinton broth (CAMHB) at 37 °C overnight. Cultures were diluted 40-fold in fresh broth and incubated at 37 °C for 1.5–3 h. Mid-log phase cultures were then diluted and added to the compound-containing plates, giving a final cell density of 5 × 10^5 CFU/mL in a total volume of 50 μL. Plates were incubated at 37 °C for 18 h without shaking.
(§4) Bacterial growth inhibition was determined by measuring the absorbance at 600 nm (OD600) using a Tecan M1000 Pro monochromator plate reader. The percentage of growth inhibition was calculated using negative (media only) and positive (bacteria without inhibitors) controls. Significance was determined by modified Z scores calculated using the median and MAD of the samples on the same plate. Samples with inhibition values above 80% and Z scores above 2.5 for either replicate were classified as active.
(§5) The fractional inhibitory concentration (FIC) index was calculated to determine synergy, additivity, or antagonism.
(§6) Colistin and VAN were used as positive bacterial inhibitor standards for Gram-negative and Gram-positive bacteria, respectively. The quality control (QC) of the assays was determined by the antimicrobial controls and the Z’ factor (using positive and negative controls).
(§7) Percentage growth inhibition was calculated using negative (media only) and positive (bacteria without inhibitors) controls. Modified Z scores were used to determine the significance of the inhibition values. Samples with inhibition values of above 80% and Z scores of above 2.5 for either replicate were classified as active. Data are presented as the mean ± standard deviation from at least three independent experiments.

[4] = tested on: Acinetobacter baumannii ATCC 19606; test: microbe, parasite or virus in culture; conditions: for MIC: Acinetobacter baumannii, ATCC19606, 18 h, read-out: MIC against Ab; for MIC, Ab (Table 1S): supplement Table 1S, unit not given (main-text tables: μg/mL), capital letter component 95 mg
Protocol: as §2, §3, §4, §5, §6, §7

[5] = tested on: Pseudomonas aeruginosa ATCC 27853; test: microbe, parasite or virus in culture; conditions: for MIC: Pseudomonas aeruginosa, ATCC27853, 18 h, read-out: MIC against Pa; for MIC, Pa (Table 1S): supplement Table 1S, unit not given (main-text tables: μg/mL), capital letter component 95 mg
Protocol: as §2, §3, §4, §5, §6, §7

[6] = tested on: Escherichia coli (E. coli) ATCC 25922; test: microbe, parasite or virus in culture; conditions: for MIC: Escherichia coli, ATCC25922, 18 h, read-out: MIC against E. coli; for MIC, Ec (Table 1S): supplement Table 1S, unit not given (main-text tables: μg/mL), capital letter component 95 mg
Protocol: as §2, §3, §4, §5, §6, §7

[7] = tested on: Gram-positive and Gram-negative bacteria; test: Structure-activity summary: antimicrobial activity (Table 5); type: cell-based; conditions: summary in words
[8] = summary in words, Table 5; earlier biophysical studies ref 20; cited from earlier work
Text: Table 5 Structure–Activity Relationships of (RW)n Peptides ^a | column: Thermal stability

[9] = tested on: Klebsiella pneumoniae ATCC 700603; test: microbe, parasite or virus in culture; conditions: for MIC against Kp: ATCC 700603, 18 h; for MIC, Kp (Table 1S): supplement Table 1S, unit not given (main-text tables: μg/mL), capital letter component 95 mg, minor letter component 5 mg
Protocol: as §2, §3, §4, §5, §6, §7

human cells = type: cell-based
[10] = S. aureus ATCC 43300, CAMHB, 5 × 10^5 CFU/mL, 37 °C, 18 h, OD600, mixtures: capital letter component 95 mg, minor letter component 5 mg

| Compound | MIC, Hk (Table 1S) [1] | MIC, Hm (Table 1S) [2] | MIC, Sa (Table 1S) ([3]; minor letter component 5 mg) | MIC, Ab (Table 1S) ([4]; minor letter component 5 mg) | MIC, Pa (Table 1S) ([5]; minor letter component 5 mg) | MIC, Ec (Table 1S) ([6]; minor letter component 5 mg) | HEK293 cells MIC ([1]; 24 h) | RBC hemolysis MIC [2] | Antimicrobial activity [7] | Thermal stability [8] | MIC against MRSA ([3]; ATCC 43300, 18 h) | MIC against Ab ([4]; ATCC 19606, 18 h) | MIC against Pa ([5]; ATCC 27853, 18 h) | MIC against Kp [9] | MIC, Kp (Table 1S) [9] | MIC against E. coli ([6]; ATCC 25922, 18 h) | Toxicity (human cells) | other results |
| --- | --- | --- | --- | --- | --- | --- | --- | --- | --- | --- | --- | --- | --- | --- | --- | --- | --- | --- |
| CC1(C)S[C@@H]2[C@H](NC(=O)[C@H](N)c3ccccc3)C(=O)N2[C@H]1C(=O)O [AMP, ampicillin, reference compound] | > 32 µg/mL | > 32 | 32 | > 32 | > 32 | 8 |  |  |  |  |  |  |  |  |  |  |  | MIC ([3]; 18 h): 32 µg/mL; MIC [4]: > 32 µg/mL; MIC [5]: > 32 µg/mL; MIC [6]: 8 µg/mL |
| CC[C@H](C)[C@H](N)C(=O)N[C@@H](CC(C)C)C(=O)N1CCC[C@H]1C(=O)N[C@@H](Cc1c[nH]c2ccccc12)C(=O)N[C@@H](CCCCN)C(=O)N[C@@H](Cc1c[nH]c2ccccc12)C(=O)N1CCC[C@H]1C(=O)N[C@@H](Cc1c[nH]c2ccccc12)C(=O)N[C@@H](Cc1c[nH]c2ccccc12)C(=O)N1CCC[C@H]1C(=O)N[C@@H](Cc1c[nH]c2ccccc12)C(=O)N[C@@H](CCCN=C(N)N)C(=O)N[C@@H](CCCN=C(N)N)C(N)=O [Indolicidin, reference compound] |  |  |  |  |  |  |  |  |  |  |  |  |  |  |  |  |  | RBC hemolysis MIC ([2]; fresh human RBCs, 1 h, 37 °C): >32 µg/mL |
| N=C(N)NCCC[C@H](NC(=O)[C@H](Cc1c[nH]c2ccccc12)NC(=O)[C@H](CCCNC(=N)N)NC(=O)[C@H](Cc1c[nH]c2ccccc12)NC(=O)[C@H](CCCNC(=N)N)NC(=O)[C@H](Cc1c[nH]c2ccccc12)NC(=O)[C@H](CCCNC(=N)N)NC(=O)[C@H](Cc1c[nH]c2ccccc12)NC(=O)[C@H](CCCNC(=N)N)NC(=O)[C@H](Cc1c[nH]c2ccccc12)NC(=O)[C@@H](N)CCCNC(=N)N)C(=O)N[C@@H](Cc1c[nH]c2ccccc12)C(N)=O [RW6] | > 32 µg/mL | <= 0.25 | <= 0.25 | > 32 | > 32 | <= 0.25 | >32 µg/mL | ≤0.25 µg/mL | High | High | ≤0.25 µg/mL | >32 µg/mL | >32 µg/mL | >32 µg/mL | > 32 | ≤0.25 µg/mL | Moderate |  |
| CN[C@H](CC(C)C)C(=O)N[C@H]1C(=O)N[C@@H](CC(N)=O)C(=O)N[C@H]2C(=O)N[C@H]3C(=O)N[C@H](C(=O)N[C@H](C(=O)O)c4cc(O)cc(O)c4-c4cc3ccc4O)[C@H](O)c3ccc(c(Cl)c3)Oc3cc2cc(c3O[C@@H]2O[C@H](CO)[C@@H](O)[C@H](O)[C@H]2O[C@H]2C[C@](C)(N)[C@H](O)[C@H](C)O2)Oc2ccc(cc2Cl)[C@H]1O [VAN, vancomycin, reference compound] |  |  | <= 0.25 | > 32 | > 32 | > 32 |  |  |  |  |  |  |  |  | > 32 |  |  | HEK293 cytotoxic concentration ([1]; supplement Table 1S, Hk = HEK293 cytotoxicity, 24 h, resazurin, unit not given (main-text tables: μg/mL), capital 95 mg, minor letter 5 mg): > 32 µg/mL; MIC, Hm (Table 1S) ([2]; supplement Table 1S, Hm = human RBC hemolysis, 1 h, 37 °C, unit not given (main-text tables: μg/mL), capital 95 mg, minor letter 5 mg, in µg/mL): 28.69; MIC ([3]; 18 h): ≤ 0.25 µg/mL; MIC [4]: > 32 µg/mL; MIC [5]: > 32 µg/mL; MIC ([9]; Klebsiella pneumoniae, ATCC700603, 18 h, read-out: MIC against Kp): > 32 µg/mL; MIC [6]: > 32 µg/mL |
| RWRWPRWRWPRWRW-NH2 [RW6-2P] | > 32 µg/mL | > 32 | <= 0.25 | 2 | <= 0.25 | 16 | >32 µg/mL | >32 µg/mL |  |  | ≤0.25 µg/mL | 2 µg/mL | ≤0.25 µg/mL | >32 µg/mL | > 32 | 16 µg/mL |  | MIC against MRSA [3, 10]: ≤ 0.25 µg/mL |
| RWRWRWRW-NH2 [RW4] | > 32 µg/mL | > 32 | 8 | > 32 | > 32 | > 32 | >32 µg/mL | >32 µg/mL | Moderate | Low | 8 µg/mL | >32 µg/mL | >32 µg/mL | >32 µg/mL | > 32 |  | Low |  |
| RWRWRWRWRWRWRWRW-NH2 [RW8] | > 32 µg/mL | 0.4523 | 2 | 32 | > 32 | 32 | >32 µg/mL | 0.4523 µg/mL | High (Gram+), Moderate (Gram−) | High | 2 µg/mL | 32 µg/mL | >32 µg/mL | >32 µg/mL | > 32 | 32 µg/mL | Moderate |  |
| penicillin [reference compound] | > 32 µg/mL | > 32 | 8 | > 32 | > 32 | 32 |  |  |  |  |  |  |  |  |  |  |  | MIC against MRSA [3, 10]: 8 µg/mL; MIC against Ab ([4]; A. baumannii ATCC 19606, CAMHB, 5 × 10^5 CFU/mL, 37 °C, 18 h, OD600, mixtures: capital letter component 95 mg, minor letter component 5 mg): >32 µg/mL; MIC against Pa ([5]; P. aeruginosa ATCC 27853, CAMHB, 5 × 10^5 CFU/mL, 37 °C, 18 h, OD600, mixtures: capital letter component 95 mg, minor letter component 5 mg): >32 µg/mL; MIC against E. coli ([6]; E. coli ATCC 25922, CAMHB, 5 × 10^5 CFU/mL, 37 °C, 18 h, OD600, mixtures: capital letter component 95 mg, minor letter component 5 mg): 32 µg/mL |
